The test system of one experiment is unselective cation channels (UCC). In words: Thapsigargin-stimulated calcium entry through unselective cation channels in fura-2-charged RBL-hm 1 cells. To be noted: 10^-5 M test substance, Thapsigargin (0.1 μM) stimulation. Format: cell-based, rat. As to the method: For screening purposes, fura-2-charged adhesive RBL-hm 1 cells are stimulated with […] Thapsigargin in a Ca^2+ -free incubation medium. After 4 minutes, extracellular Ca^2+ is restored to a concentration of 1.5 mM and, using the fura-2-fluorescence, the excessive increase in the cytoplasmic Ca^2+ -concentration caused by a massive transmembranal Ca^2+ -entry through unselective cation channels is recorded.
The fluorometric calcium measurement in the cytoplasm of individual adhering RBL-hm1 cells is carried out analogously to the method described by KUDO and OGURA (1986) for neuronal cells. An AXIOVERT 35 fluorescence microscope made by ZEISS is used in conjunction with an imaging system made by HAMAMATSU, consisting of the ICMS-image processing system, residual light camera with control unit and image intensifier DVS 3000.
The kinetics of the cytoplasmic Ca^2+ -concentration is recorded continuously as a concentration/time curve after the cell activation stimulated by Thapsigargin (0.1 μM). […] The area under these curves (area under the curve=AUC) is integrated and recorded as a measurement of cell activation. The inhibitory potency of the UCC-blockers tested is determined using the following equation: [formula] […]
AUC control=area under the curve which is recorded only after the addition of the stimulant.
The percentage inhibition of UCC after Thapsigargin stimulation (0.1 μM Thapsigargin) in RBL-hm 1 cells is given. […]
With `COc1cc2c(cc1OC)-c1c3cnnc(SCc4ccc(Br)cc4)c3cn1CC2`, the “% H (10^-5 M), percentage inhibition of the calcium entry through unselective cation channels” value is listed as 62.9%.
The same measure, in the same setting: then `COc1cc2c(cc1OC)-c1c3cnnc(SCCCCOc4ccccc4F)c3cn1CC2`, with 61.6%; and `COc1cc2c(cc1OC)-c1c3cnnc(SCc4ccc(F)cc4)c3cn1CC2`, with 94.6%.
On the same count and under the same terms, then `COc1cc2c(cc1OC)-c1c3cnnc(SCc4cccc(Cl)c4)c3cn1CC2`, with 81.9%.
Regarding `COc1cc2c(cc1OC)-c1c3cnnc(OC)c3cn1CC2` [CH3 (X:O), 5,6-Dihydro-2,3,9-trimethoxypyridazino[4',5':3,4]-pyrrolo[2,1-a]isoquinoline], the “% H (10^-5 M), percentage inhibition of the calcium entry through unselective cation channels” value was determined as 62.5%.
Same read-out and setting: the result for `COc1cc2c(cc1OC)-c1c3cnnc(SC)c3cn1CC2` [CH3 (X:S), reference compound] reads 46.4%; that for `COc1cc2c(cc1OC)-c1c3cnnc(SCc4ccccc4)c3cn1CC2`, 97.5%.

For a further experiment, the system named is RBL-2H3-cells. As to the kind of experiment: Antigen (DNP-BSA)-induced activation of sensitised RBL-2H3 cells, fluorometric cytoplasmic calcium measurement. It is filed as cell-based. To be noted: Rattus norvegicus, read-out: inhibition of the antigen-induced cell activation. The method, then: Individual RBL-2H3-cells (a turnout cell line related to the mast cells) adhering to glass slides are used.
The cultivation and attachment of the RBL-2H3-cells are carried out by the method described by HIDE and BEAVEN (1991). In order to sensitise the adhesive RBL-2H3-cells the cells are incubated for 2 hours at ambient temperature with a 1:2000 diluted commercial gammaglobulin E-solution against a dinitrophenol-bovine serum albumin complex (DNP-BSA-antigen). The cells are then washed. By the addition of 0.1 ml of DNP-BSA-solution (10 μg/ml) there is a massive immunological cell activation which is mediated by a cytoplasmic Ca^2+ -overload. The fluorometric calcium measurement in the cytoplasm of individual adhering RBL-2H3-cells is carried out analogously to the method described by KUDO and OGURA (1986) for neuronal cells, which is also explained hereinbefore in this specification.
The comparison used in these investigations is (10 μM) chromoglycate which brings about an approximately 50% inhibition of the antigen-induced cell activation.
The term inhibition denotes the relative decrease from the control value, in per cent. Turning to `O=C(O)c1cc(=O)c2c(OCC(O)COc3cccc4oc(C(=O)O)cc(=O)c34)cccc2o1` [chromoglycate], the inhibition at 10 µM is approximately 50%.

Source of the values: patent publication US5688793A, “Pyridazino[4',5':3,4]pyrrolo-[2,1-a]-isoquinolines and the use thereof for preparing pharmaceutical preparations” (Boehringer Ingelheim GmbH, priority 1993, dated 1997).
